According to patent US20250352488A1, “IONIZABLE LIPIDS AND NANOPARTICLES COMPRISING SAME” (MANA BIO LTD., priority 2022, published 2025):

Key:
cells = experiment: cell-penetration of LNPs and intracellular delivery of mRNA; assay type: cell-based; settings: LNPs containing the compound as ionizable lipid; compared to a similar composition comprising Dlin-MC3-DMA
Protocol: The inventors determined cell-penetration of the exemplary LNPs and intracellular delivery of mRNA.
More specifically, particles were incubated on cells for 16-24 hrs at 37° C. under 5% CO2 and expression levels were measured. Formulations were compared to Lipofectamine control and to MC3 control, as well as to untreated controls.

BALB/c mouse = experiment: in vivo expression distribution of encapsulated mRNA F-LUC (IVIS imaging, ex-vivo tissue analysis); settings: intravenous, 13 μg/mouse
Protocol: (§1) The inventors determined the expression distribution of the exemplary LNPs in vivo by assessing expression of the encapsulated mRNA (mRNA F-LUC). The LNPS of the invention encapsulating mRNA F-LUC have been injected intravenously into a BALB/c mouse, at a dosage of 13 μg/mouse (0.52-0.65 mg/kg). In-vivo imaging were done by IVIS imaging. Ex-vivo tissue analysis was done for lung, heart, spleen, kidney, and liver using IVIS. Histology assessment was determined by H&E staining with pathologist report for toxicity. Histology assessment concluded normal morphology without any treatment related pathological changes.
as §1, with “LNPs” for “LNPS”

lung cells = experiment: cell-based studies of specificity to lung cells; settings: LNPs containing the compound as ionizable lipid; compared to a similar composition comprising Dlin-MC3-DMA

Compound: CCCCCCCCCOCC(O)CN(CCN(CC(O)COCCCCCCCCC)CC(O)COCCCCCCCCC)CC(O)COCCCCCCCCC (centres unmarked) [MB-77]
- internalization efficiency (cells): superior internalization efficiency

Compound: CCCCCCCCCCCCOCC(O)CN(CCCCCCCCN(CC(O)COCCCCCCCCCCCC)CC(O)COCCCCCCCCCCCC)CC(O)COCCCCCCCCCC (centres unmarked) [MB-205]
- internalization efficiency (cells): superior internalization efficiency

Compound: CCCCCCCCOCC(O)CN(CCCCN(CC(O)COCCCCCCCC)CC(O)COCCCCCCCC)CC(O)COCCCCCCCC (centres unmarked) [MB-208]
- internalization efficiency (cells): superior internalization efficiency

Compound: CCCCCCCCOCC(O)CN(CCOCCOCCN(CC(O)COCCCCCCCC)CC(O)COCCCCCCCC)CC(O)COCCCCCCCC (centres unmarked) [MB-212]
- internalization efficiency (cells): superior internalization efficiency
- lung specificity of the LNP (BALB/c mouse): enhanced lung specificity
- specificity to the lung cells (lung cells): enhanced specificity to the lung cells

Compound: CCCCCCCCOCC(O)CN(CCCCCCCCN(CC(O)COCCCCCCCC)CC(O)COCCCCCCCC)CC(O)COCCCCCCCC (centres unmarked) [MB-222]
- lung specificity of the LNP (BALB/c mouse): enhanced lung specificity
- specificity to the lung cells (lung cells): enhanced specificity to the lung cells
